Experimental data from US9856259B2, “Heterocyclic compounds and uses thereof” (Plexxikon Inc., priority 2014, dated 2018).

What was measured:
MV-4-11 = experiment: Oncology cell growth assay, MV-4-11 3 d growth; assay type: cell-based; settings: Homo sapiens, MV4-11; MV-4-11 cells, 72 hours, CellTiter Glo; read-out: Cell activity (IC50 μM) MV-4-11 3 d-Growtb
In short: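 MV-4-11 AML cells (MLL-AF4) seeded 3000/well, then exposed to 8-point 1:3 compound dilutions up to 10 μM final, 0.2% DMSO, for 72 h. Growth read by CellTiter Glo luminescence, normalised to DMSO controls; pIC50 from four-parameter fit.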

[1] = tested on: cancer cell lines / MV-4-11 Myc reporter cell line; experiment: Bromodomain cell assays of Example 8 (at least one of them); assay type: cell-based; settings: Homo sapiens, MV4-11; at least one of the bromodomain cell assays described in Example 8
In short: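 Antiproliferation: 3000 cells/well, 8-point 1:3 titration from 10 µM final, 0.2% DMSO, 72 h, CellTiter Glo luminescence. Myc reporter: MV-4-11 with E-box firefly luciferase, 25,000 cells, same titration, 24 h; One-Glo luminescence with CellTiter-Fluo viability; 10 µM JQ1 as low control. pIC50 from four-parameter fit.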

BRD4-BD12 = molecular target: T1, BRD4-BD12 (Homo sapiens, UniProt O60885); experiment: Alphascreen binding assay, BRD4(1 2) H4; settings: BRD4 dual bromodomains with acetylated Histone 4 peptide, read-out: Biochemical activity (IC50 μM) BRD4(1 2) H4
T1 construct: dual bromodomains (BRD4-BD12 (1-477), BRD4-BD12 (1-472)); six-His tag (N); made in house; host or cells: E. coli BL21-CodonPlus (DE3)
In short: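 N-His-tagged human BRD4 tandem bromodomains (1-477 or 1-472, E. coli-expressed) and biotinylated tetra-acetylated histone H4 1-21 peptide, preincubated 1 h at room temperature with compound in HEPES pH 7.5/NaCl/BSA/Triton/DTT. AlphaScreen nickel-chelate/streptavidin beads added (7.5 μg/mL), read after 30 min. pIC50 from four-parameter fit of control-normalized data.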

Structure (SMILES) | IC50 (MV-4-11) [µM] | IC50 [1] [nM] | IC50 (BRD4-BD12) [µM]
Cc1noc(C)c1-c1cnc2c(-c3cnn(CC(F)(F)F)c3)nn(CC3CC(F)(F)C3)c2c1 [Compound P-2087, 4-[1-[(3,3-difluorocyclobutyl)methyl]-3-[1-(2,2,2-trifluoroethyl)pyrazol-4-yl]pyrazolo[4,3-b]pyridin-6-yl]-3,5-dimethyl-isoxazole] | ≤ 1 | < 10000 | ≤ 1
Cc1noc(C)c1-c1cnc2c(n1)c(CC1CCC(F)(F)CC1)cn2-c1ccc(C(=O)O)cn1 [Compound P-2078, 6-[7-[(4,4-difluorocyclohexyl)methyl]-2-(3,5-dimethylisoxazol-4-yl)pyrrolo[2,3-b]pyrazin-5-yl]pyridine-3-carboxylic acid] | 1 to 10 | < 10000 | ≤ 1
[2H]C([2H])(C1CCC(F)(F)CC1)n1cc(I)c2ncc(-c3c(C)noc3C)nc21 [Compound P-2039, 4-[5-[dideuterio-(4,4-difluorocyclohexyl)methyl]-7-iodo-pyrrolo[2,3-b]pyrazin-3-yl]-3,5-dimethyl-isoxazole] | ≤ 1 | < 10000 | ≤ 1
COC(=O)Cc1ccc(-c2nn([C@@H](C)c3ccccn3)c3cc(-c4c(C)noc4C)ccc23)cc1 [Compound P-2012, methyl 2-[4-[6-(3,5-dimethylisoxazol-4-yl)-1-[(1S)-1-(2-pyridyl)ethyl]indazol-3-yl]phenyl]acetate] | ≤ 1 | < 10000 | ≤ 1
Cc1noc(C)c1-c1ccc2c(-c3cnn(C)c3)nn(CC3CCC(F)(F)CC3)c2c1 [Compound P-2001, 4-[1-[(4,4-difluorocyclohexyl)methyl]-3-(1-methylpyrazol-4-yl)indazol-6-yl]-3,5-dimethyl-isoxazole] | ≤ 1 | < 10000 | ≤ 1
COC(=O)c1ccc(-c2nn([C@@H](C)c3ccccn3)c3cc(-c4c(C)noc4C)ccc23)cc1 [Compound P-2011, methyl 4-[6-(3,5-dimethylisoxazol-4-yl)-1-[(1S)-1-(2-pyridyl)ethyl]indazol-3-yl]benzoate] | ≤ 1 | < 10000 | ≤ 1
[2H]C([2H])(C1CCC(F)(F)CC1)n1nc(-c2cnn(CC(F)(F)F)c2)c2ncc(-c3c(C)noc3C)cc21 [Compound P-2085, 4-[1-[dideuterio-(4,4-difluorocyclohexyl)methyl]-3-[1-(2,2,2-trifluoroethyl)pyrazol-4-yl]pyrazolo[4,3-b]pyridin-6-yl]-3,5-dimethyl-isoxazole] | ≤ 1 | < 10000 | ≤ 1
[2H]C([2H])(C1CCC(F)(F)CC1)n1cc(-c2ccc(C(=O)OC)cc2)c2ncc(-c3c(C)noc3C)nc21 [Compound P-2043, methyl 4-[5-[dideuterio-(4,4-difluorocyclohexyl)methyl]-3-(3,5-dimethylisoxazol-4-yl)pyrrolo[2,3-b]pyrazin-7-yl]benzoate] | 1 to 10 | < 10000 | ≤ 1
COC(=O)Cc1ccc(-c2cn([C@@H](C)c3ccccn3)c3nc(-c4c(C)noc4C)cnc23)cc1 [Compound P-2051, methyl 2-[4-[3-(3,5-dimethylisoxazol-4-yl)-5-[(1S)-1-(2-pyridyl)ethyl]pyrrolo[2,3-b]pyrazin-7-yl]phenyl]acetate] | ≤ 1 | < 10000 | ≤ 1
Cc1noc(C)c1-c1cnc2c(-c3ccc(CC(=O)O)cc3)cn([C@@H](C)c3ccccn3)c2n1 [Compound P-2052, 2-[4-[3-(3,5-dimethylisoxazol-4-yl)-5-[(1S)-1-(2-pyridyl)ethyl]pyrrolo[2,3-b]pyrazin-7-yl]phenyl]acetic acid] | ≤ 1 | < 10000 | ≤ 1
Cc1noc(C)c1-c1cnc2c(-c3cnn(CC(F)(F)F)c3)nn(CC3(F)CCCCC3)c2c1 [Compound P-2089, 4-[1-[(1-fluorocyclohexyl)methyl]-3-[1-(2,2,2-trifluoroethyl)pyrazol-4-yl]pyrazolo[4,3-b]pyridin-6-yl]-3,5-dimethyl-isoxazole] | ≤ 1 | < 10000 | ≤ 1
[2H]C([2H])(C1CCC(F)(F)CC1)n1cc(-c2cnn(C)c2)c2ncc(-c3c(C)noc3C)nc21 [Compound P-2040, 4-[5-[dideuterio-(4,4-difluorocyclohexyl)methyl]-7-(1-methylpyrazol-4-yl)pyrrolo[2,3-b]pyrazin-3-yl]-3,5-dimethyl-isoxazole] | ≤ 1 | < 10000 | ≤ 1
COC(=O)c1ccc(-c2nn(C(c3ccccc3)c3ccccn3)c3cc(-c4c(C)noc4C)ccc23)cc1 (stereo not drawn) [Compound P-2006, methyl 4-[6-(3,5-dimethylisoxazol-4-yl)-1-[phenyl(2-pyridyl)methyl]indazol-3-yl]benzoate] | ≤ 1 | < 10000 | ≤ 1
Cc1noc(C)c1-c1cnc2ncn(C(c3ccccc3)c3ccccn3)c2c1 (stereo not drawn) [Compound P-2103, 3,5-dimethyl-4-[1-[phenyl(2-pyridyl)methyl]imidazo[4,5-b]pyridin-6-yl]isoxazole] | ≤ 1 | < 10000 | ≤ 1
Cc1noc(C)c1-c1cnc2c(-c3ccc(CC(=O)O)cc3)cn(C(c3ccccc3)c3ccccn3)c2n1 (stereo not drawn) [Compound P-2048, 2-[4-[3-(3,5-dimethylisoxazol-4-yl)-5-[phenyl(2-pyridyl)methyl]pyrrolo[2,3-b]pyrazin-7-yl]phenyl]acetic acid] | ≤ 1 | < 10000 | ≤ 1
Cc1noc(C)c1-c1cnc2[nH]cc(CC3CCC(F)(F)CC3)c2n1 [Compound P-2077, 4-[7-[(4,4-difluorocyclohexyl)methyl]-5H-pyrrolo[2,3-b]pyrazin-2-yl]-3,5-dimethyl-isoxazole] | 1 to 10 | < 10000 | 1 to 10
[2H]C([2H])(C1CCC(F)(F)CC1)n1ccc2ncc(-c3[nH]nnc3C)nc21 [Compound P-2041, 5-[dideuterio-(4,4-difluorocyclohexyl)methyl]-3-(4-methyl-1H-triazol-5-yl)pyrrolo[2,3-b]pyrazine] | 1 to 10 | < 10000 | 1 to 10
[2H]C([2H])(C1CCC(F)(F)CC1)n1cc(-c2ccc(C(=O)O)cc2)c2ncc(-c3c(C)noc3C)nc21 [Compound P-2044, 4-[5-[dideuterio-(4,4-difluorocyclohexyl)methyl]-3-(3,5-dimethylisoxazol-4-yl)pyrrolo[2,3-b]pyrazin-7-yl]benzoic acid] | ≤ 1 | < 10000 | ≤ 1
Cc1noc(C)c1-c1ccc2c(-c3ccc(C(=O)O)cc3)nn(C(c3ccccc3)c3ccccn3)c2c1 (stereo not drawn) [Compound P-2007, 4-[6-(3,5-dimethylisoxazol-4-yl)-1-[phenyl(2-pyridyl)methyl]indazol-3-yl]benzoic acid] | ≤ 1 | < 10000 | ≤ 1
Cc1noc(C)c1-c1cnc2c(-c3cnn(C(F)F)c3)nn(CC3(F)CCCCC3)c2c1 [Compound P-2088, 4-[3-[1-(difluoromethyl)pyrazol-4-yl]-1-[(1-fluorocyclohexyl)methyl]pyrazolo[4,3-b]pyridin-6-yl]-3,5-dimethyl-isoxazole] | ≤ 1 | < 10000 | ≤ 1
